Assay results: article PMC6849638 (2019)

Legend:
Assay in all cases: luminescence titration
Conditions in all cases: Na+ 100 mM; 20 mM Tris-HCl, pH 7.5, 298 K; apparent
[1] = tested on: A3T3 (DNA, hairpin) GGCAAATTTCAGTTTTTCTGAAATTTGCC
[2] = tested on: G2C3 (DNA, hairpin) GGCAGGCCCAGCTTTTTGCTGGGCCTGCC
[3] = tested on: A2T2 (DNA, hairpin) GGCGAATTCAGCTTTTTGCTGAATTCGCC
[4] = tested on: A2T3 (DNA, hairpin) GGCGAATTTCGCTTTTTGCGAAATTCGCC

Structure (SMILES) | KD [1] | KD [2] | KD [3] | KD [4]
N=C(N)c1ccc(NCc2ccnc(-c3cc(CNc4ccc(C(=N)N)cc4)ccn3)c2)cc1.[Ir+3].[c-]1ccccc1-c1ccccn1.[c-]1ccccc1-c1ccccn1 [Δ-4Ir] | 1.01 (0.12) μM | 1.44 (0.09) μM | 0.27 (0.09) μM | 0.49 (0.03) μM
N=C(N)c1ccc(NCc2ccnc(-c3cc(CNc4ccc(C(=N)N)cc4)ccn3)c2)cc1.[Ir+3].[c-]1ccccc1-c1ccccn1.[c-]1ccccc1-c1ccccn1 [Λ-4Ir] | 0.47 (0.03) μM | 0.70 (0.05) μM | 1.15 (0.13) μM | 0.62 (0.04) μM
